Data published in PubChem BioAssay (NCI).
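Test compounds were applied to cells in 96-well plates for 48 hours at 5 doses. Abbreviation: GI50, concentration required for 50% inhibition of growth. TGI: total growth inhibition.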

Experiments:
Experiment in all cases: inhibition of tumour cell growth, NCI panel, 48 h
786-0 renal = tested on: 786-0 renal
A498 renal = tested on: A498 renal
A549 NSCLC = tested on: A549 NSCLC
ACHN renal = tested on: ACHN renal
BT-549 breast = tested on: BT-549 breast
CAKI-1 renal = tested on: CAKI-1 renal
CCRF-CEM leukemia = tested on: CCRF-CEM leukemia
COLO 205 colon = tested on: COLO 205 colon
DU-145 prostate = tested on: DU-145 prostate
HCC-2998 colon = tested on: HCC-2998 colon
HCT-116 colon = tested on: HCT-116 colon
HCT-15 colon = tested on: HCT-15 colon
HL-60(TB) leukemia = tested on: HL-60(TB) leukemia
HOP-62 NSCLC = tested on: HOP-62 NSCLC
HOP-92 NSCLC = tested on: HOP-92 NSCLC
HS 578T breast = tested on: HS 578T breast
HT29 colon = tested on: HT29 colon
IGROV1 ovarian = tested on: IGROV1 ovarian
K-562 leukemia = tested on: K-562 leukemia
KM12 colon = tested on: KM12 colon
LOX IMVI melanoma = tested on: LOX IMVI melanoma
M14 melanoma = tested on: M14 melanoma
MALME-3M melanoma = tested on: MALME-3M melanoma
MCF7 breast = tested on: MCF7 breast
MDA-MB-231 breast = tested on: MDA-MB-231 breast
MDA-MB-435 = tested on: MDA-MB-435
MOLT-4 leukemia = tested on: MOLT-4 leukemia
NCI-H226 lung = tested on: NCI-H226 lung
NCI-H23 lung = tested on: NCI-H23 lung
NCI-H460 lung = tested on: NCI-H460 lung
NCI-H522 lung = tested on: NCI-H522 lung
NCI/ADR-RES ovarian = tested on: NCI/ADR-RES ovarian
OVCAR-3 ovarian = tested on: OVCAR-3 ovarian
OVCAR-4 ovarian = tested on: OVCAR-4 ovarian
OVCAR-5 ovarian = tested on: OVCAR-5 ovarian
OVCAR-8 ovarian = tested on: OVCAR-8 ovarian
PC-3 prostate = tested on: PC-3 prostate
RPMI-8226 leukemia = tested on: RPMI-8226 leukemia
RXF 393 renal = tested on: RXF 393 renal
SF-268 CNS = tested on: SF-268 CNS
SF-295 CNS = tested on: SF-295 CNS
SF-539 CNS = tested on: SF-539 CNS
SK-MEL-2 melanoma = tested on: SK-MEL-2 melanoma
SK-MEL-28 melanoma = tested on: SK-MEL-28 melanoma
SK-MEL-5 melanoma = tested on: SK-MEL-5 melanoma
SK-OV-3 ovarian = tested on: SK-OV-3 ovarian
SN12C renal = tested on: SN12C renal
SNB-19 CNS = tested on: SNB-19 CNS
SNB-75 CNS = tested on: SNB-75 CNS
SR leukemia = tested on: SR leukemia
SW-620 colon = tested on: SW-620 colon
T-47D breast = tested on: T-47D breast
TK-10 renal = tested on: TK-10 renal
U251 CNS = tested on: U251 CNS
UACC-257 melanoma = tested on: UACC-257 melanoma
UACC-62 melanoma = tested on: UACC-62 melanoma
UO-31 renal = tested on: UO-31 renal

Question: With `O=C1/C(=C/c2ccc(Cl)cc2)CN(Cc2cn(CCNc3ccnc4cc(Cl)ccc34)nn2)C/C1=C\c1ccc(Cl)cc1` as the compound, how does the GI50 (786-0 renal) read?
Answer: 247 nM

Question: What about the TGI (786-0 renal) of the same compound?
Answer: 616 nM

Question: And the GI50 (A498 renal)?
Answer: 1140 nM

Question: What about the TGI (A498 renal) of the same compound?
Answer: 2370 nM

Question: And the GI50 (A549 NSCLC)?
Answer: 284 nM

Question: And the TGI (A549 NSCLC)?
Answer: 834 nM

Question: What about the GI50 (ACHN renal) of the same compound?
Answer: 391 nM

Question: What about the TGI (ACHN renal) of the same compound?
Answer: 1210 nM

Question: What about the GI50 (BT-549 breast) of the same compound?
Answer: 488 nM

Question: What about the TGI (BT-549 breast) of the same compound?
Answer: 1440 nM

Question: And the GI50 (CAKI-1 renal)?
Answer: 346 nM

Question: What about the TGI (CAKI-1 renal) of the same compound?
Answer: 1570 nM

Question: What about the GI50 (CCRF-CEM leukemia) of the same compound?
Answer: 309 nM

Question: What about the TGI (CCRF-CEM leukemia) of the same compound?
Answer: > 100000 nM

Question: And the GI50 (COLO 205 colon)?
Answer: 354 nM

Question: And the TGI (COLO 205 colon)?
Answer: 1070 nM

Question: And the GI50 (DU-145 prostate)?
Answer: 426 nM

Question: What about the TGI (DU-145 prostate) of the same compound?
Answer: 1380 nM

Question: What about the GI50 (HCC-2998 colon) of the same compound?
Answer: 246 nM

Question: What about the TGI (HCC-2998 colon) of the same compound?
Answer: 563 nM

Question: What about the GI50 (HCT-116 colon) of the same compound?
Answer: 203 nM

Question: What about the TGI (HCT-116 colon) of the same compound?
Answer: 436 nM

Question: What about the GI50 (HCT-15 colon) of the same compound?
Answer: 308 nM

Question: And the TGI (HCT-15 colon)?
Answer: 1060 nM

Question: And the GI50 (HL-60(TB) leukemia)?
Answer: 332 nM

Question: What about the TGI (HL-60(TB) leukemia) of the same compound?
Answer: 1100 nM

Question: And the GI50 (HOP-62 NSCLC)?
Answer: 272 nM

Question: What about the TGI (HOP-62 NSCLC) of the same compound?
Answer: 729 nM

Question: What about the GI50 (HOP-92 NSCLC) of the same compound?
Answer: 496 nM

Question: What about the TGI (HOP-92 NSCLC) of the same compound?
Answer: 1830 nM

Question: What about the GI50 (HS 578T breast) of the same compound?
Answer: 724 nM

Question: And the TGI (HS 578T breast)?
Answer: 13500 nM

Question: And the GI50 (HT29 colon)?
Answer: 231 nM

Question: And the TGI (HT29 colon)?
Answer: 489 nM

Question: What about the GI50 (IGROV1 ovarian) of the same compound?
Answer: 276 nM

Question: What about the TGI (IGROV1 ovarian) of the same compound?
Answer: 732 nM

Question: And the GI50 (K-562 leukemia)?
Answer: 302 nM

Question: And the TGI (K-562 leukemia)?
Answer: 1080 nM

Question: What about the GI50 (KM12 colon) of the same compound?
Answer: 220 nM

Question: And the TGI (KM12 colon)?
Answer: 496 nM

Question: And the GI50 (LOX IMVI melanoma)?
Answer: 189 nM

Question: What about the TGI (LOX IMVI melanoma) of the same compound?
Answer: 350 nM

Question: What about the GI50 (M14 melanoma) of the same compound?
Answer: 560 nM

Question: What about the TGI (M14 melanoma) of the same compound?
Answer: 2210 nM

Question: What about the GI50 (MALME-3M melanoma) of the same compound?
Answer: 1530 nM

Question: What about the TGI (MALME-3M melanoma) of the same compound?
Answer: 3140 nM

Question: What about the GI50 (MCF7 breast) of the same compound?
Answer: 376 nM

Question: What about the TGI (MCF7 breast) of the same compound?
Answer: 1370 nM

Question: And the GI50 (MDA-MB-231 breast)?
Answer: 293 nM

Question: And the TGI (MDA-MB-231 breast)?
Answer: 966 nM

Question: And the GI50 (MDA-MB-435)?
Answer: 326 nM

Question: And the TGI (MDA-MB-435)?
Answer: 1080 nM

Question: What about the GI50 (MOLT-4 leukemia) of the same compound?
Answer: 499 nM

Question: What about the TGI (MOLT-4 leukemia) of the same compound?
Answer: > 100000 nM

Question: And the GI50 (NCI-H226 lung)?
Answer: 840 nM

Question: And the TGI (NCI-H226 lung)?
Answer: 2690 nM

Question: What about the GI50 (NCI-H23 lung) of the same compound?
Answer: 761 nM

Question: What about the TGI (NCI-H23 lung) of the same compound?
Answer: 2310 nM

Question: What about the GI50 (NCI-H460 lung) of the same compound?
Answer: 247 nM

Question: And the TGI (NCI-H460 lung)?
Answer: 602 nM

Question: And the GI50 (NCI-H522 lung)?
Answer: 520 nM

Question: What about the TGI (NCI-H522 lung) of the same compound?
Answer: 1190 nM

Question: And the GI50 (NCI/ADR-RES ovarian)?
Answer: 406 nM

Question: What about the TGI (NCI/ADR-RES ovarian) of the same compound?
Answer: 2240 nM

Question: And the GI50 (OVCAR-3 ovarian)?
Answer: 311 nM

Question: What about the TGI (OVCAR-3 ovarian) of the same compound?
Answer: 915 nM

Question: What about the GI50 (OVCAR-4 ovarian) of the same compound?
Answer: 353 nM

Question: What about the TGI (OVCAR-4 ovarian) of the same compound?
Answer: 1810 nM

Question: What about the GI50 (OVCAR-5 ovarian) of the same compound?
Answer: 612 nM

Question: And the TGI (OVCAR-5 ovarian)?
Answer: 1620 nM

Question: And the GI50 (OVCAR-8 ovarian)?
Answer: 367 nM

Question: What about the TGI (OVCAR-8 ovarian) of the same compound?
Answer: 1430 nM

Question: And the GI50 (PC-3 prostate)?
Answer: 260 nM

Question: And the TGI (PC-3 prostate)?
Answer: 776 nM

Question: What about the GI50 (RPMI-8226 leukemia) of the same compound?
Answer: 272 nM

Question: And the TGI (RPMI-8226 leukemia)?
Answer: 1050 nM

Question: And the GI50 (RXF 393 renal)?
Answer: 201 nM

Question: And the TGI (RXF 393 renal)?
Answer: 416 nM

Question: And the GI50 (SF-268 CNS)?
Answer: 270 nM

Question: And the TGI (SF-268 CNS)?
Answer: 786 nM

Question: And the GI50 (SF-295 CNS)?
Answer: 222 nM

Question: And the TGI (SF-295 CNS)?
Answer: 541 nM

Question: And the GI50 (SF-539 CNS)?
Answer: 264 nM

Question: What about the TGI (SF-539 CNS) of the same compound?
Answer: 742 nM

Question: What about the GI50 (SK-MEL-2 melanoma) of the same compound?
Answer: 1880 nM

Question: What about the TGI (SK-MEL-2 melanoma) of the same compound?
Answer: 3400 nM

Question: What about the GI50 (SK-MEL-28 melanoma) of the same compound?
Answer: 1400 nM

Question: And the TGI (SK-MEL-28 melanoma)?
Answer: 2810 nM

Question: What about the GI50 (SK-MEL-5 melanoma) of the same compound?
Answer: 807 nM

Question: And the TGI (SK-MEL-5 melanoma)?
Answer: 2080 nM

Question: What about the GI50 (SK-OV-3 ovarian) of the same compound?
Answer: 1030 nM

Question: What about the TGI (SK-OV-3 ovarian) of the same compound?
Answer: 2380 nM

Question: And the GI50 (SN12C renal)?
Answer: 1080 nM

Question: What about the TGI (SN12C renal) of the same compound?
Answer: 3380 nM

Question: What about the GI50 (SNB-19 CNS) of the same compound?
Answer: 319 nM

Question: What about the TGI (SNB-19 CNS) of the same compound?
Answer: 1270 nM

Question: And the GI50 (SNB-75 CNS)?
Answer: 1220 nM

Question: What about the TGI (SNB-75 CNS) of the same compound?
Answer: 2630 nM

Question: And the GI50 (SR leukemia)?
Answer: 245 nM

Question: What about the TGI (SR leukemia) of the same compound?
Answer: 815 nM

Question: What about the GI50 (SW-620 colon) of the same compound?
Answer: 275 nM

Question: What about the TGI (SW-620 colon) of the same compound?
Answer: 830 nM

Question: And the GI50 (T-47D breast)?
Answer: 946 nM

Question: What about the TGI (T-47D breast) of the same compound?
Answer: 3620 nM

Question: What about the GI50 (TK-10 renal) of the same compound?
Answer: 483 nM

Question: What about the TGI (TK-10 renal) of the same compound?
Answer: 1600 nM

Question: And the GI50 (U251 CNS)?
Answer: 185 nM

Question: And the TGI (U251 CNS)?
Answer: 391 nM

Question: What about the GI50 (UACC-257 melanoma) of the same compound?
Answer: 1590 nM

Question: What about the TGI (UACC-257 melanoma) of the same compound?
Answer: 3020 nM

Question: What about the GI50 (UACC-62 melanoma) of the same compound?
Answer: 528 nM

Question: And the TGI (UACC-62 melanoma)?
Answer: 1920 nM

Question: And the GI50 (UO-31 renal)?
Answer: 242 nM

Question: What about the TGI (UO-31 renal) of the same compound?
Answer: 698 nM
